From patent US11628198B2, “Methods for prevention and treatment of acute renal injury” (Cornell University, priority 2008, dated 2023)
Marks after values point to notes of the source that are not given here.

Legend:
Assay type in all cases: in vivo, rat
[1] = tested on: ARI caused by ischemia-reperfusion (I/R); assay: I/R model of ARI: BUN and serum creatinine; conditions: 45 min ischemia and 24 h reperfusion; 3 mg/kg 30 min before ischemia and before reperfusion
Experimental: Sprague Dawley rats (250˜300 g) were assigned to four groups: (1) sham surgery group without I/R; (2) I/R+saline vehicle treatment; (3) I/R+SS-20 treatment; (4) I/R+SS-31 treatment. Each experimental group consisted of 8 rats. SS-20 and SS-31 (3 mg/kg, dissolved in saline) were administered to rats 30 min before ischemia and immediately before onset of reperfusion. The control rats were given saline alone on the same schedule.
Rats were anesthetized with a mixture of ketamine (90 mg/kg, i.p.) and xylazine (4 mg/kg, i.p.). The left renal vascular pedicle was occluded temporarily using a micro-clamp for 30 or 45 min. At the end of the ischemic period, reperfusion was established by removing of the clamp. At that time, the contralateral right kidney was removed. After 24 h reperfusion, animals were sacrificed and blood samples were obtained by cardiac puncture. Renal function was determined by blood urea nitrogen (BUN) and serum creatinine (BioAssay Systems DIUR-500 and DICT-500).
BUN and serum creatinine were assayed using kits from BioAssay Systems (DIUR-500 and DICT-500). […] The # indicates p<0.05 from the IR=saline group.

[2] = tested on: CIN in glycerol-induced rhabdomyolysis animal model; assay: CIN in glycerol-induced rhabdomyolysis model, Experiment 3
Experimental: (§1) SD rats with body weight of 300-400 grams were dehydrated for 24 h followed by i.m. injection with 25% glycerol solution (v/v) at the dose of 10 ml/kg. Twenty-four hours (24 h) later, the rats were grouped and subjected to contrast induced nephropathy study protocol. Eighteen SD rats with body weight of 350-400 g were randomized into three groups with the doses, dosing schedules and study protocol presented in FIG. 27. The effects of SS-31 on ARI can be examined by comparing the renal functions in animals from group A with that from group B.
(§2) Renal function: Renal function was assessed by determining serum and urinary creatinine using Jiancheng Cr kit (Nanjing, P.R.C) at baseline, 24 h after dehydration and 48 h post the contrast dye administration. The creatinine clearance was calculated based on the Scr, Ucr and Urinary volume. Urinary protein concentration was determined by Bradford Protein Assay kit (Sigma, U.S.A.). Samples were analyzed by students t-test and differences were considered significant at p<0.05.

[3] = tested on: CCl4 induced chronic nephrotoxicity; assay: CCl4 chronic kidney injury model: renal histology; conditions: 10 mg/kg s.c. 5 days a week for 7 wks
From the text: Study design and experimental protocol: In this model, SD rats with body weight of 250 g were fed with 0.35 g/L phenobarbital solution (Luminal water) for two weeks, then divided into three groups and treated as follows.
At the end of fifth week, four rats from each group were sacrificed for liver histopathological sectioning and fibrosis examination. In the end of 7th week, all remaining rats in each group were sacrificed, and kidney and liver tissues were harvest for histopathological sectioning and examination.
Renal Histology: Kidneys were fixed in 10% neutral-buffered formalin and embedded in paraffin wax. Three micron sections were stained with hematoxylin-eosin (H&E) and analyzed by light microscopy by a certified pathologist.

[4] = tested on: ARI caused by ureteral obstruction (UUO); assay: 14-day UUO model: renal histology (trichrome, interstitial volume); conditions: obstructed kidney
Experimental: Sprague-Dawley rats underwent unilateral ureteral ligation (UUO) with 4-0 silk suture through a midline abdominal incision under sterile conditions. Ureteral obstruction was carried out by ligating the left ureter at the end of lower ureter, just above the ureterovesical junction.
SS-31 (1 mg/kg or 3 mg/kg; n=8) was administered intraperitoneally, one day prior to UUO and continuing for 14 days. A separate group of animals was given saline, as a vehicle control (n=16).
Renal Histology: Trichrome sections of paraffin embedded specimens were examined by a board-certified pathologist (SVS, renal pathology specialist), and fibrosis scored on a scale of 0-+++.

[5] = tested on: CIN in glycerol-induced rhabdomyolysis animal model; assay: CIN in glycerol-induced rhabdomyolysis model, Experiment 2
Experimental: as §1, with “hours” for “hours (24 h)”, “Sixteen” for “Eighteen”, “300-350” for “350-400”, “23.” for “27.”, “B. Samples were analyzed by Student's t-test and differences were considered significant at p<0.05.” for “B.”
as §2, with “and urinary” for “and Urinary”, “(Sigma, St. Louis, Mo.).” for “(Sigma, U.S.A.). Samples were analyzed by students t-test and differences were considered significant at p<0.05.”

[6] = tested on: ARI caused by cisplatin; assay: Cisplatin-induced ARI model
Experimental: Sprague-Dawley rats (350-400 g) were given a single dose of cisplatin (7 mg/kg) intraperitoneally on Day 1. One group of rats (n=8) received one dose of SS-31 (3 mg/kg) subcutaneously just prior to cisplatin administration, and repeated once daily for 3 more days. A second group of rats (n=8) […] received an equal volume of saline on the day of cisplatin administration and for 3 more days after.
Experimental Protocol: Rats had free access to tap water and standard rat chow prior to cisplatin administration. Control blood samples were obtained from the tail vein before cisplatin administration. Saline or SS-31 (dissolved in saline) was administered to the rats subcutaneously prior to cisplatin injection. Cisplatin (dissolved in saline) was administered at a dose of 7 mg/kg intraperitoneally. All rats then received either saline or SS-31 (3 mg/kg) daily for 3 days. Rat were placed in metabolic cages for the last 24 hours for urine collection. At the end of this period, a blood sample was withdrawn from the tail vein. After this, the animals were anesthetized, kidneys were removed, and the animals euthanized.
Renal function: Renal function was assessed by blood urea nitrogen (BUN), serum creatinine, urine creatinine, and urine protein (Beckman ALX Chemical Analyzer). GFR was estimated from creatinine clearance which was determined from urinary creatinine, urine flow rate, and serum creatinine.
Renal Histology: Kidneys were fixed in 10% neutral-buffered formalin and embedded in paraffin wax. Three micron sections were stained with periodic acid-Schiff (PAS) and analyzed by light microscopy.

[7] = 3 days after cisplatin, 3 mg/kg s.c. daily

**Q.** Which results are given for D-Arg-2′6′Dmt-Lys-Phe-NH2 [SS-31]?
**A.** BUN [1]: 113.8 ± 11.4# mg/dl; serum creatinine [1]: 1.05 ± 0.16# mg/dl; PAS staining of kidney ([2]; glycerin, dye): intact brush borders, normal glomeruli and minimum protein cast in the tubular cells; urine protein level over time ([2]; vs vehicle group): recovered faster than the vehicle group; renal histology (H&E) [3]: no observable histopathological change; trichrome staining (fibrosis), cortex [4]: 0-trace; trichrome staining (fibrosis), medulla [4]: tr− 1+; medullary interstitial volume ([4]; 1 mg/kg i.p. daily): 54.9±2.3%; medullary interstitial volume ([4]; higher dose): also effective; reduction of creatinine clearance ([5]; 48 h post dye): 13%; 24 h urinary protein level ([5]; T0 (24 h post glycerin), no peptide yet): 50.2 ± 8.6 mg; 24 h urinary protein level ([5]; T1 (48 h post glycerin and 24 hrs post dye)): 39.5 ± 3.5 mg; 24 h urinary protein level ([5]; Tb (baseline), no peptide yet): 15.5 ± 1.5 mg; PAS staining of kidney ([5]; glycerin, dye): intact brush borders, normal glomeruli and minimum protein cast in the tubular cells; rats with no change in serum creatinine (<0.4 mg/dl) ([6]; 3 days after cisplatin): 5 out of 8; BUN [6, 7]: 29.3 ± 25 mg/dL; Kidney weight [6, 7]: 1.6 ± 0.2 g; body weight [6, 7]: 384 ± 28 g; serum creatinine [6, 7]: 0.8 ± 0.73 mg/dL; BUN ([6]; before cisplatin treatment): 15.5 ± 1.7 mg/dL; body weight ([6]; before cisplatin treatment): 376.9 ± 5.2 g; serum creatinine ([6]; before cisplatin treatment): 0.4 ± 0.09 mg/dL
